For 13 molecules, T/C results are on record in PubChem BioAssay AID248 (DTP/NCI, 2004).

Structures are written as SMILES. Toxic doses and inconclusive results are not listed.

The assay concerns L1210 leukemia ip in BDF1 mice, survival T/C. The experiment in a line: NCI In Vivo Anticancer Drug Screen. Data for tumor model L1210 Leukemia (intraperitoneal) in B6D2F1 (BDF1) mice. The note with it: higher = longer survival. The procedure, abridged:
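Ratio derived from survival: compound-dosed mice over vehicle-dosed mice, all bearing a transplantable tumor.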

Where [1] appears, read: endpoint: mean survival time, dose: 200.0 mg/kg/injection, schedule: Q01DX001 (ip), vehicle: carboxymethylcellulose (CMC).
Where [2] appears, read: endpoint: mean survival time, dose: 50.0 mg/kg/injection, schedule: Q04DX002 (ip), vehicle: Klucel (hydroxypropylcellulose) (HPC).
[3] abbreviates: endpoint: mean survival time, dose: 100.0 mg/kg/injection, schedule: Q04DX002 (ip), vehicle: Klucel (hydroxypropylcellulose) (HPC).
Where [4] appears, read: endpoint: mean survival time, dose: 200.0 mg/kg/injection, schedule: Q04DX002 (ip), vehicle: Klucel (hydroxypropylcellulose) (HPC).
[5] abbreviates: endpoint: mean survival time, dose: 100.0 mg/kg/injection, schedule: Q04DX003 (ip), vehicle: saline with Tween-80.
The mark [6] stands for this setting: endpoint: mean survival time, dose: 200.0 mg/kg/injection, schedule: Q04DX003 (ip), vehicle: saline with Tween-80.
Setting [7] is: endpoint: mean survival time, dose: 400.0 mg/kg/injection, schedule: Q04DX003 (ip), vehicle: saline with Tween-80.
The mark [8] stands for this setting: endpoint: mean survival time, dose: 200.0 mg/kg/injection, schedule: Q01DX001 (ip), vehicle: saline.
Where [9] appears, read: endpoint: mean survival time, dose: 100.0 mg/kg/injection, schedule: Q04DX003 (ip), vehicle: Klucel (hydroxypropylcellulose) (HPC).

For `O=C(C[N+]12CN3CN(CN(C3)C1)C2)c1ccc(Cl)cc1`, the T/C runs as follows: (endpoint: mean survival time, dose: 40.0 mg/kg/injection, schedule: Q01DX Z (ip), vehicle: saline) 98 % of control; (endpoint: mean survival time, dose: 44.0 mg/kg/injection, schedule: Q01DX Z (ip), vehicle: carboxymethylcellulose (CMC)) 109 % of control; (endpoint: mean survival time, dose: 50.0 mg/kg/injection, schedule: Q01DX001 (ip), vehicle: carboxymethylcellulose (CMC)) 107 % of control; (endpoint: mean survival time, dose: 60.0 mg/kg/injection, schedule: Q01DX Z (ip), vehicle: saline) 107 % of control; (endpoint: mean survival time, dose: 73.0 mg/kg/injection, schedule: Q01DX Z (ip), vehicle: carboxymethylcellulose (CMC)) 110 % of control; (endpoint: mean survival time, dose: 90.0 mg/kg/injection, schedule: Q01DX Z (ip), vehicle: saline) 109 % of control. For the same molecule, the T/C runs as follows: (endpoint: mean survival time, dose: 100.0 mg/kg/injection, schedule: Q01DX001 (ip), vehicle: carboxymethylcellulose (CMC)) 102 % of control; (endpoint: mean survival time, dose: 110.0 mg/kg/injection, schedule: Q01DX Z (ip), vehicle: carboxymethylcellulose (CMC)) 113 % of control; (endpoint: mean survival time, dose: 135.0 mg/kg/injection, schedule: Q01DX Z (ip), vehicle: saline) 109 % of control; (endpoint: mean survival time, dose: 165.0 mg/kg/injection, schedule: Q01DX Z (ip), vehicle: carboxymethylcellulose (CMC)) 115 % of control; under setting [1], 100 % of control; (endpoint: mean survival time, dose: 202.5 mg/kg/injection, schedule: Q01DX Z (ip), vehicle: saline) 112 % of control. Further, the T/C is 113 % of control (endpoint: mean survival time, dose: 303.7 mg/kg/injection, schedule: Q01DX Z (ip), vehicle: saline) and 107 % of control (endpoint: mean survival time, dose: 400.0 mg/kg/injection, schedule: Q01DX001 (ip), vehicle: carboxymethylcellulose (CMC)).
For `COC(=O)C(Cc1ccc(N(CCCl)CCCl)cc1)N=NNc1nc[nH]c1C(N)=O` (configuration not stated), the T/C is 150 % of control (endpoint: mean survival time, dose: 11.0 mg/kg/injection, schedule: Q03HX024 (ip), vehicle: other); 176 % of control (endpoint: mean survival time, dose: 17.0 mg/kg/injection, schedule: Q03HX024 (ip), vehicle: other); 157 % of control (endpoint: mean survival time, dose: 25.0 mg/kg/injection, schedule: Q03HX024 (ip), vehicle: other); 152 % of control (endpoint: mean survival time, dose: 38.0 mg/kg/injection, schedule: Q01DX009 (ip), vehicle: other); 114 % of control (endpoint: mean survival time, dose: 56.0 mg/kg/injection, schedule: Q01DX009 (ip), vehicle: other); 166 % of control (endpoint: mean survival time, dose: 88.0 mg/kg/injection, schedule: Q04DX003 (ip), vehicle: other). Also, the T/C was 160 % of control (endpoint: mean survival time, dose: 134.0 mg/kg/injection, schedule: Q04DX003 (ip), vehicle: other); 161 % of control under setting [1]; 103 % of control (endpoint: mean survival time, dose: 200.0 mg/kg/injection, schedule: Q04DX003 (ip), vehicle: other); 181 % of control (endpoint: mean survival time, dose: 300.0 mg/kg/injection, schedule: Q01DX001 (ip), vehicle: carboxymethylcellulose (CMC)); 151 % of control (endpoint: mean survival time, dose: 375.0 mg/kg/injection, schedule: Q01DX001 (ip), vehicle: carboxymethylcellulose (CMC)); 122 % of control (endpoint: median survival time, dose: 12.5 mg/kg/injection, schedule: Q01DX009 (ip), vehicle: steriod suspending solution). The T/C was 105 % of control (endpoint: median survival time, dose: 50.0 mg/kg/injection, schedule: Q01DX009 (ip), vehicle: steriod suspending solution) and 88 % of control (endpoint: median survival time, dose: 100.0 mg/kg/injection, schedule: Q01DX009 (ip), vehicle: steriod suspending solution).
`O=C1OCc2c1cc1n(c2=O)Cc2cc3ccccc3nc2-1`: the T/C was 89 % of control (endpoint: mean survival time, dose: 100.0 mg/kg/injection, schedule: Q01DX001 (ip), vehicle: Klucel (hydroxypropylcellulose) (HPC)); 89 % of control (endpoint: mean survival time, dose: 200.0 mg/kg/injection, schedule: Q01DX001 (ip), vehicle: Klucel (hydroxypropylcellulose) (HPC)); 103 % of control (endpoint: mean survival time, dose: 400.0 mg/kg/injection, schedule: Q01DX001 (ip), vehicle: Klucel (hydroxypropylcellulose) (HPC)).
Consider `NC(C(=O)O)c1ccccc1` (configuration not stated), for which the T/C by setting is: (endpoint: mean survival time, dose: 12.5 mg/kg/injection, schedule: Q04DX002 (ip), vehicle: Klucel (hydroxypropylcellulose) (HPC)) 96 % of control; (endpoint: mean survival time, dose: 25.0 mg/kg/injection, schedule: Q04DX002 (ip), vehicle: Klucel (hydroxypropylcellulose) (HPC)) 104 % of control; under setting [2], 96 % of control.
Turning to `COc1ccc(C(C)(O)c2cc3ccccc3n2S(=O)(=O)c2ccccc2)cc1` (configuration not stated), the T/C is 102 % of control under setting [2], 95 % of control under setting [3] and 95 % of control under setting [4].
With `N#C/C(=C\c1c[nH]c2ccccc12)C(N)=O`, the T/C reads like this: (endpoint: mean survival time, dose: 50.0 mg/kg/injection, schedule: Q04DX003 (ip), vehicle: saline) 104 % of control; under setting [5], 93 % of control; (endpoint: mean survival time, dose: 100.0 mg/kg/injection, schedule: Q04DX003 (ip), vehicle: saline) 107 % of control; under setting [6], 104 % of control; (endpoint: mean survival time, dose: 200.0 mg/kg/injection, schedule: Q04DX003 (ip), vehicle: saline) 95 % of control; under setting [7], 96 % of control. Further, for the setting “endpoint: mean survival time, dose: 400.0 mg/kg/injection, schedule: Q04DX003 (ip), vehicle: saline”, the T/C is 97 % of control.
For the molecule `Cc1csc2nc(-c3ccccc3)nc(Cl)c12`, the T/C is, setting by setting: (endpoint: mean survival time, dose: 100.0 mg/kg/injection, schedule: Q04DX003 (ip), vehicle: saline sonified) 97 % of control; (endpoint: mean survival time, dose: 200.0 mg/kg/injection, schedule: Q04DX003 (ip), vehicle: saline sonified) 93 % of control; (endpoint: mean survival time, dose: 400.0 mg/kg/injection, schedule: Q04DX003 (ip), vehicle: saline sonified) 95 % of control.
As to `CNS(=O)(=O)CCC(N)C(=O)O` (configuration not stated), the T/C under setting [5] is 97 % of control, the T/C under setting [6] was 103 % of control and the T/C under setting [7] is 97 % of control.
In the case of `COC(=O)C1C(O)CC2CCC1[N+]2(C)C` (configuration not stated), the T/C (endpoint: mean survival time, dose: 100.0 mg/kg/injection, schedule: Q01DX001 (ip), vehicle: saline) was 96 % of control and the T/C under setting [8] is 100 % of control.
Consider `CCOc1ccccc1NC(=O)Oc1ccc(-c2ccccc2)cc1`, for which the T/C is 98 % of control (endpoint: mean survival time, dose: 100.0 mg/kg/injection, schedule: Q01DX009 (ip), vehicle: saline with Tween-80); 100 % of control (endpoint: mean survival time, dose: 200.0 mg/kg/injection, schedule: Q01DX009 (ip), vehicle: saline with Tween-80); 93 % of control (endpoint: mean survival time, dose: 400.0 mg/kg/injection, schedule: Q01DX009 (ip), vehicle: saline with Tween-80).
Take `COc1ccc(F)cc1CC(N)=O`: the T/C is, setting by setting: under setting [3], 101 % of control; under setting [4], 97 % of control; (endpoint: mean survival time, dose: 400.0 mg/kg/injection, schedule: Q04DX002 (ip), vehicle: Klucel (hydroxypropylcellulose) (HPC)) 104 % of control.
Turning to `CSc1ncnc2c1ncn2C1OC(CO)C(O)OC1O` (configuration not stated), the T/C by setting is: (endpoint: mean survival time, dose: 15.0 mg/kg/injection, schedule: Q01DX009 (ip), vehicle: saline) 117 % of control; (endpoint: mean survival time, dose: 25.0 mg/kg/injection, schedule: Q01DX009 (ip), vehicle: saline) 111 % of control; (endpoint: mean survival time, dose: 25.0 mg/kg/injection, schedule: Q04DX003 (ip), vehicle: Klucel (hydroxypropylcellulose) (HPC)) 104 % of control; (endpoint: mean survival time, dose: 45.0 mg/kg/injection, schedule: Q01DX001 (ip), vehicle: saline) 106 % of control; (endpoint: mean survival time, dose: 45.0 mg/kg/injection, schedule: Q01DX009 (ip), vehicle: saline) 119 % of control; (endpoint: mean survival time, dose: 50.0 mg/kg/injection, schedule: Q04DX003 (ip), vehicle: Klucel (hydroxypropylcellulose) (HPC)) 109 % of control. The T/C was 118 % of control (endpoint: mean survival time, dose: 67.0 mg/kg/injection, schedule: Q01DX001 (ip), vehicle: saline); 119 % of control (endpoint: mean survival time, dose: 70.0 mg/kg/injection, schedule: Q01DX009 (ip), vehicle: saline); 116 % of control (endpoint: mean survival time, dose: 75.0 mg/kg/injection, schedule: Q01DX009 (ip), vehicle: saline); 110 % of control under setting [9]; 112 % of control under setting [8].
Take `CC(=O)OCc1cc(=O)c(OC(C)=O)co1`: the T/C by setting is: under setting [9], 112 % of control; (endpoint: mean survival time, dose: 200.0 mg/kg/injection, schedule: Q04DX003 (ip), vehicle: Klucel (hydroxypropylcellulose) (HPC)) 96 % of control; (endpoint: mean survival time, dose: 400.0 mg/kg/injection, schedule: Q04DX003 (ip), vehicle: Klucel (hydroxypropylcellulose) (HPC)) 98 % of control.
